Test system: formation of kallikrein
Assay: Inhibitory action against the formation of kallikrein (kaolin-activated human plasma, synthetic substrate)
Assay type: biochemical
Details: human plasma diluted with saline, kaolin activation, substrate D-Pro-Phe-Arg-p-nitroaniline
Experimental: Kallikrein is a group of proteinase widely distributed in the plasma and tissues of various kinds of animals. […] The inhibitory action of the substance of the present invention against the formation of kallikrein was assayed according to the method described in Example 1 of European Patent Publication No.0259857. That is, in the primary reaction, kaolin suspension was added to the human plasma diluted with physiological saline. After a certain while, Lima Bean trypsin inhibitor was added to terminate the activation of kallikrein. In the second reaction, the amount of kallikrein formed in the primary reaction was measured by the use of a synthetic substrate specific to kallikrein, such as D-Pro-Phe-Arg-p-nitroaniline. In the above reaction system, the activity of the test substance to inhibit the formation of kallikrein was measured by mixing the test substance with the human plasma prior to addition of kaolin suspension.

## CC(C(=O)O)c1cccc(C(=O)c2ccccc2)c1 (stereo not shown) [Ketoprofen]
  IC50 = Concentration 50% inhibiting the formation of kallikrein: 700 µg/mL

From US5057324A, “Kallikrein inhibitor substance, a process for preparation and pharmaceutical compositions thereof” (priority 1987, dated 1991)
